Assay results reported in patent US20220096597A1, “CARDIO-PROTECTIVE EFFECT OF VASOCONSTRICTION-INHIBITING FACTOR (VIF)” (Rheinisch-Westfälische Technische Hochschule Aachen (RWTH), priority 2019, published 2022).
Ends that are not written are not given here.

System: C57BL/6N mice with induced myocardial infarction
Assay: Histology and immunohistochemistry of hearts after induced infarction
Assay type: in vivo
Conditions: infarcted mouse heart, up to 28 days; FIG. 6A and 6C
Description: To further study the newly identified effects of VIF (according to SEQ ID NO: 1), and especially in vivo, 8 to 10 week old wild type male C57BL/6N mice (Charles River, Germany) were intubated under anesthesia (100 mg/kg ketamine, 10 mg/kg xylazine, i.p.) and analgesia (0.1 mg/kg buprenorphine). The mice were ventilated with positive pressure and oxygenation using a rodent respirator (Harvard Apparatus, Germany). […]
A Gömöri trichrome staining was performed to determine the infarct size. Subsequently, three slices per mouse from 3 to 5 different mice were analyzed using ImageJ. after one of anti-SMA antibody (smooth muscle actin, DAKO, FIG. 6D), anti-MAC3 antibody (BD Pharmingen, FIG. 6B), anti-MPO antibody (Neomarkers, FIG. 6A) and anti-CD31 antibody (Santa Cruz Biotechnology, FIG. 6E) staining, followed by staining with fluorescein isothiocyanate (FITC)—or a Cy3-conjugated secondary antibody (DAKO, Germany). Positively stained cells or double-positive stained cells (FIG. 6C for anti-MAC3/MPO) were counted in three different fields per slice and expressed as cells per field of view (200× magnification).

Sequence: HSGFEDELSEVLENQSSQAELKEAVEEPSSKDVME [VIF]
- infiltration of neutrophils (anti-MPO) compared to non-treated controls: does not lead to an increased infiltration of neutrophils
